Tests used:
SW-620 cells = SW-620 cells treated with cytokines then Irinotecan; flow cytometry for stem cell markers and apoptosis; type: cell-based, human; details: SW-620, preliminary data
Experimental: SW-620 cells, a human colorectal adenocarcinoma cell line, were treated with cytokines alone or in combination including IL-6, TGF-beta, HGF, PGE-2, IL-6+PGE-2 and TGF-beta+HGF for 24 hours and compared to untreated SW-620 cells as control, Some treated and untreated SW-620 cells were then exposed to 2 μM Irinotecan for 36 hours at which point cells were harvested for flow cytometry to assess for stem cell markers and markers of apoptosis. The percentage of CD44+CD133− cells following treatment with various cytokine and cytokine cocktails is depicted in FIG. 10. Compared to non-cytokine treated cells, combinations with IL-6+PGE-2, and TGF-beta+HGF increased the number and percentage of cells that were CD44+CD133− as shown in FIG. 10 (stem cells). FIG. 11 depicts the percentage of CD44+CD133− cells following treatment with various cytokines and Irinotecan. Treatment with IL-6+Irinotecan and TGF+Irinotecan increased the percentage of CD44+CD133− stem cells to 2% (from zero in non-treated control cells) as shown in FIG. 11. FIG. 12 depicts the percentage of CD44+CD133− cells following treatment with various cytokine cocktails and Irinotecan. A combination of TGF+HGF+Irinotecan increased the percentage of CD44+CD133− stem cells to 2% (from zero in non-treated control cells) as shown in FIG. 12. […]

HCT-15 cells = experiment: Cell proliferation / cell subpopulations in HCT-15 cell line after cytokines and cytokine cocktails (flow cytometry); type: cell-based; parameters: unit not given here; details: HCT-15 cells after exposure to cytokine combinations
Experimental: Cell proliferation of cancer and/or cancer stem cell populations with selected cytokine and cytokine cocktails on serum starved colorectal carcinoma cell lines. Prior to incubation cells were stained with a cell proliferation dye, which binds stoichiometrically to DNA. Intensity of the dye decreased upon cell division thereby signifying cell proliferation.
Two authenticated colorectal carcinoma cell lines, HCT-15 and SW-620, were used to test the effect of different cytokine and cytokine cocktails, including IL-6, HGF, PGE-2, TGF-beta and MMP-9 alone or in a cocktail, on cell proliferation, EMT and cancer stem cell populations.
In order to evaluate stem cell populations, cells were synchronized by serum starvation for 72 hours before seeding in 24-well ultra low attachment plates at a density of 200,000 cells/well. Cells were then detached using trypsin EDTA and washed twice with PBS (without Calcium or Magnesium). A cell proliferation dye, eFluor 450 was used to label cells. Cells were grown with DMEM with high glucose and 2 mM Gluatmine without FBS in the presence of selected cytokines and or cytokine cocktails over a period of 72 hrs.
Cells that were grown in 5% serum were stained with the following antibody cocktails: CD24FITC, CD44PE and CD24FITC, CD133PE. Cells were also stained with a fixable live/dead efluor dye 506 to exclude dead cells. In parallel, cells were grown in the presence of 5% serum to evaluate CSC markers.
(§1) Cells were fixed in 1% Paraformaldehyde for 15 minutes at room temperature and run on Flowsight using 2 lasers (488 nm at 60 mW and 405 nm at 30 mW). For cell lines, 100,000 events were collected whilst for enriched CTCs all events were collected until the sample finished.
(§2) Flow cytometry data was analysed using IDEAS software. Double events, out of focus events, CD45PerePCy5.5 positive cells (in case of enriched CTCs), dead cells and non-nucleated events were eliminated from the fluorescence analysis of the cell population. FIG. 2 depicts scatterplots of flow cytometry experiments showing the enriched CTCs stained with an antibody containing CD44 after treatment with various cytokines and cytokine cocktails. Hoescht 33258 dye was used to stain nuclei in the case of the HCT-15 cell line and enriched CTCs. All experiments were stained with a fixable live/dead dye eFluor 506 to exclude dead cells.
To evaluate which cocktail combinations were most likely involved in cell proliferation of presumed quiescent stem cells or de-differentiated stein cell-like cells, four cytokines, IL-6, HGF, PGB-2 and TO were added singly or in pairs to HCT-15 cells. Results of combinations that influenced cell proliferation of HCT-15 cells in culture are presented. […] FIG. 4 depicts cell proliferation of subpopulations in the HCT-15 cell line after exposure to various cytokines and cytokine cocktails.

[1] = tested on: enriched circulating tumour cells (CTCs); experiment: Cell proliferation / cancer stem cell markers in enriched CTCs from a patient with metastatic prostate cancer cultured with cytokine cocktails; type: cell-based, human; details: for EpCAM+CD133+ gated subpopulation / EpCAM+CD133− gated subpopulation / EpCAM−CD133+ gated subpopulation / EpCAM−CD133− gated subpopulation: enriched CTCs (metastatic prostate cancer patient) cultured with cytokine or cytokine cocktail, flow cytometry, antibody cocktail EpCAM A488, CD133 PE, CD45 PerCPCy5.5, percentages of gated subpopulations; for proliferation of EpCAM-CD44+ cell sub-population: no serum, no cytokines 2.2%; for Cell population EpCAM+CD44+ / Cell population EpCAM+CD44− / Cell population EpCAM−CD44+ / Cell population EpCAM−CD44−: metastatic prostate cancer patient, cell culture period 8 days
Experimental: as §1
as §2, with “cocktails.” for “cocktails. Hoescht 33258 dye was used to stain nuclei in the case of the HCT-15 cell line and enriched CTCs. All experiments were stained with a fixable live/dead dye eFluor 506 to exclude dead cells.”
In order to determine if selected cytokines influence cell proliferation of circulating tumour cells (CTCs), whole blood was collected from a patient with metastatic prostate cancer. Circulating tumour cells were enriched from whole blood using RosetteSep CTC Enrichment cocktail. Briefly, samples of whole blood were incubated with RosetteSep (anti CD 56 for 20 minutes at room temperature). Phosphate buffered saline containing 2% Fetal Bovine Serum was added to the samples and layered on a Ficoll Paque gradient. After centrifugation, the supernatant which contained CTCs was washed twice with PBS containing 2% FBS. Equal volumes of the cell suspension were seeded into a 24-well ultra-low attachment polystyrene plate. […] FIG. 3 depicts scatterplots of flow cytometry experiments enriched CTCs stained with an antibody containing CD133 after treatment with various cytokines and cytokine cocktails.
FIG. 6 depicts cell proliferation of subpopulations in cultured CTCs after exposure to various cytokines and cytokine cocktails. Cells were stained using an antibody containing CD44 PE.
Cells were stained using an antibody containing CD133 PE.

[2] = early use after coronary artery bypass surgery; cited from earlier work
breast cancer = details: perioperative, 9-18 month period of greatest risk, compared to other analgesics or NSAIDs post-operatively; cited from earlier work
[3] = tested on: B16 amelanotic melanoma model; details: cited from earlier work
[4] = tested on: enriched circulating tumour cells (CTCs); experiment: Enriched CTCs from a patient with colorectal cancer cultured with IL-6, IL-8 or PDGFBB (EpCAM/CD133 flow cytometry); type: cell-based, human; details: for EpCAM+CD133+ gated subpopulation / EpCAM+CD133− gated subpopulation / EpCAM−CD133+ gated subpopulation / EpCAM−CD133− gated subpopulation: colorectal cancer patient
Excerpt: A blood sample was collected from a patient with colorectal cancer six days after surgery, Blood samples were enriched for CTCs using RosetteSep CD 56 kit according to standard protocol. Prior to cell culture, cells were stained with the following antibody cocktail: EpCAM A488, CD133PE, CD 45 PerCP Cy5.5, and Lgr5-PE-Vio770. Cells were either cultured in low attachment well plates without cytokines (control cells) or with three different cytokines (IL-6, IL-8 or PDGFBB).
Flow cytometry data was analysed using IDEAS software. Double events, out of focus events, CD45PercPCy5.5 positive cells, dead cells and non-nucleated events were eliminated from the fluorescence analysis of the cell population. Hoescht 33258 dye was used to stain nuclei of enriched CTCs. All experiments were stained with a fixable live/dead dye eFluor 506 to exclude dead cells.

colon cancer = details: cited from earlier work
[5] = tested on: premetastatic niche formation; details: disruption of niche formation; cited from earlier work

CCCCC[C@H](O)/C=C/[C@H]1[C@H](O)CC(=O)[C@@H]1C/C=C\CCCC(=O)O [PGE-2, prostaglandin E2, reference compound]
enrichment of Irinotecan treated cells for cancer stem cells above non-cytokine treated controls (SW-620 cells): enriched
CD24+CD44− cell subpopulation (HCT-15 cells): 58.7
CD44+CD24+ cell subpopulation (HCT-15 cells): 7.3
CD44+CD24− cell subpopulation (HCT-15 cells): 0.61
CD44−CD24− cell subpopulation (HCT-15 cells): 32.4
EpCAM+CD133+ gated subpopulation [1]: 10.4%
EpCAM+CD133− gated subpopulation [1]: 0%
EpCAM−CD133+ gated subpopulation [1]: 86.7%
EpCAM−CD133− gated subpopulation [1]: 2.61%
proliferation of EpCAM-CD44+ cell sub-population ([1]; enriched CTCs, 8 days culture): 4.23 % gated
Cell population EpCAM+CD44+ ([1]; enriched CTCs): 27.2 percentage of gated cells
Cell population EpCAM+CD44− ([1]; enriched CTCs): 1.75 percentage of gated cells
Cell population EpCAM−CD44+ ([1]; enriched CTCs): 4.23 percentage of gated cells
Cell population EpCAM−CD44− ([1]; enriched CTCs): 65.5 percentage of gated cells

CC(=O)Oc1ccccc1C(=O)O [aspirin]
survival compared to no aspirin [2]: superior survival

O=C(c1ccccc1)c1ccc2n1CCC2C(=O)O (stereo not shown) [ketorolac]
reduction in relapses (breast cancer): 5 fold

CCCCC[C@H](O)/C=C/[C@@H]1[C@H]2C/C(=C/CCCC(=O)O)O[C@H]2C[C@H]1O [prostacyclin]
hepatic metastases [3]: complete elimination
pulmonary metastases [3]: reduction

HGF: Hepatocyte Growth Factor, cytokine added to cultured cancer cells
CD24+CD44− cell subpopulation (HCT-15 cells): 58.6
CD44+CD24+ cell subpopulation (HCT-15 cells): 3.29
CD44+CD24− cell subpopulation (HCT-15 cells): 0.31
CD44−CD24− cell subpopulation (HCT-15 cells): 35.9
EpCAM+CD133+ gated subpopulation [1]: 17.2%
EpCAM+CD133− gated subpopulation [1]: 0.2%
EpCAM−CD133+ gated subpopulation [1]: 80.8%
EpCAM−CD133− gated subpopulation [1]: 1.58%
Cell population EpCAM+CD44+ ([1]; enriched CTCs): 16.8 percentage of gated cells
Cell population EpCAM+CD44− ([1]; enriched CTCs): 4.89 percentage of gated cells
Cell population EpCAM−CD44+ ([1]; enriched CTCs): 2.12 percentage of gated cells
Cell population EpCAM−CD44− ([1]; enriched CTCs): 74.9 percentage of gated cells

IL-6: cytokine Interleukin 6 added to cultured cancer cells
enrichment of Irinotecan treated cells for cancer stem cells above non-cytokine treated controls (SW-620 cells): enriched
CD24+CD44− cell subpopulation (HCT-15 cells): 49.1
CD44+CD24+ cell subpopulation (HCT-15 cells): 5.63
CD44+CD24− cell subpopulation (HCT-15 cells): 1.35
CD44−CD24− cell subpopulation (HCT-15 cells): 43.2
EpCAM+CD133+ gated subpopulation [1]: 23.5%
EpCAM+CD133− gated subpopulation [1]: 0%
EpCAM−CD133+ gated subpopulation [1]: 74.7%
EpCAM−CD133− gated subpopulation [1]: 1.46%
percentage of cells positive for both EpCAM and CD44 ([1]; enriched CTCs, 8 days culture): highest
proliferation of EpCAM-CD44+ cell sub-population ([1]; enriched CTCs, 8 days culture): 6.14 % gated
Cell population EpCAM+CD44+ ([1]; enriched CTCs): 35.6 percentage of gated cells
Cell population EpCAM+CD44− ([1]; enriched CTCs): 2.66 percentage of gated cells
Cell population EpCAM−CD44+ ([1]; enriched CTCs): 6.14 percentage of gated cells
Cell population EpCAM−CD44− ([1]; enriched CTCs): 55 percentage of gated cells
EpCAM+CD133+ gated subpopulation [4]: 0.1 percentages of gated subpopulations
EpCAM+CD133− gated subpopulation [4]: 2.98 percentages of gated subpopulations
EpCAM−CD133+ gated subpopulation [4]: 0.12 percentages of gated subpopulations
EpCAM−CD133− gated subpopulation [4]: 90.5 percentages of gated subpopulations
increase in the EpCAM+CD133− subpopulation (significance, p<0.05) ([4]; compared to control): statistically significant

Il-8: cytokine IL-8 added to cultured CTCs
EpCAM+CD133+ gated subpopulation [4]: 0.13 percentages of gated subpopulations
EpCAM+CD133− gated subpopulation [4]: 2.51 percentages of gated subpopulations
EpCAM−CD133+ gated subpopulation [4]: 0.09 percentages of gated subpopulations
EpCAM−CD133− gated subpopulation [4]: 90.8 percentages of gated subpopulations

bevacizumab: antiangiogenic agent
relapse (colon cancer; during the year on treatment, started 29-50 days post-operatively, with adjuvant chemotherapy): delayed relapse
overall survival (colon cancer; versus chemotherapy-only group): no net benefit
metastatic colonization [5]: prevented metastatic colonization

B1: PDGFBB: Platelet derived growth factor BB added to cultured CTCs (protein, UniProt P01127 82-190, looked up)
Platelet-derived growth …: SLGSLTIAEPAMIAECKTRTEVFEISRRLIDRTNANFLVWPPCVEVQRCSGCCNNRNVQCRPTQVQLRPVQVRKIEIVRKKPIFKKATVTLEDHLACKCETVAAARPVT
modifications: BB homodimer
notes: Platelet derived growth factor BB added to cultured CTCs
EpCAM+CD133+ gated subpopulation [4]: 0.18 percentages of gated subpopulations
EpCAM+CD133− gated subpopulation [4]: 2.29 percentages of gated subpopulations
EpCAM−CD133+ gated subpopulation [4]: 0.1 percentages of gated subpopulations
EpCAM−CD133− gated subpopulation [4]: 90.5 percentages of gated subpopulations
